Source: patent publication US11267809B2, “BAF complex modulating compounds and methods of using the same” (THE BOARD OF TRUSTEES OF THE LELAND STANFORD JUNIOR …, priority 2017, dated 2022)

How the values were obtained:
Format in all cases: cell-based, human
[1] = system: HCT116 cells infected with shRNA lentivirus targeting ARID2; assay: Synergy viability assay, HCT116 with shARID2 knockdown; settings: with VE-821, 5 days
From the text: (§1) SMARCA4, the primary target of our original screen, is present in both human BAF and PBAF complexes in cancer^12. PBAF complexes differ from BAF complexes by incorporation of specific subunits. Specifically, PBAF complexes contain ARID2 (as opposed to ARID1A/B), PHF10 (BAF45a) (as opposed to […] (BAF45d)), PBRM1, and lack the BAF-specific subunit SS18. PBAF specific subunits are also frequently mutated in cancer, specifically renal clear cell carcinomas and cholangiocarcinomas^33-36. To assess whether the lead compound is targeting BAF, PBAF complexes, or both, we constitutively knocked down ARID1A or ARID2 by lentiviral transduction of HCT116 cells and compared the BAFi/ATRi synergy to the wild-type (ARID1A+/+). […] Further, upon knockdown of ARID1A or ARID2 (FIG. 3b), the synergistic effect observed between Baficillin1 and VE-821 was ablated upon loss of ARID1A (FIG. 3e) (CIshARID1A=1.48±0.14), but not loss of shARID2 (CIshARID2=0.42±0.04) (FIG. 3c-e).
Viability assays were performed in 384-well plates. Cells were plated at 500 cells/well. Each drug was administered in 5-doses with 4 replicates per plate, and each 5×5 drug combination was administered with 8 replicates per plate, 24 hours after seeding. […] After 5 days, cellular viability was measured using CellTitre blue, as described by the manufacturer. […]

[2] = system: ACHN renal clear cell carcinoma cell line; assay: Synergy viability assay, ACHN; settings: with VE-821, PBRM1 mutant line
From the text: In ARID1A-deficient tumors, ATR inhibition is thought to trigger premature mitotic entry and chromosome instability that cannot be resolved, resulting in mitotic catastrophe^27. […] We sought to assess whether generic BAF inhibition might sensitize a host of cancers to ATR inhibition. We tested the efficacy of BAFi and ATRi on nine additional human cancer cell lines including seven Breast cancer cell lines (HCC1143, HCC1954, HCC1187, MDAMB-468, MDA-MB-436, Cal-51, MCF-7) and two renal clear cell carcinoma cell lines (A-704, and ACHN). Cal-51 and MCF-7 are both considered aggressive, highly mutated breast cancer cell lines with numerous COSMIC Census gene mutations (FIG. 10). HCC1143 and MDA-MB-468 are sporadic basal-likecancers, HCC1187 is a triple-negative breast cancer, and HCC1954 and MDA-MB-436 are BRCA1 mutant breast cancers which harbor single driver mutations. To assess synergy, each cell line was treated with 5 doses of VE-821 (1.25 uM-20 uM) and 5 doses of Baficillin1 (1.25 uM-20 uM), both independently and with all possible combinations. Like HCT-116 cells, Baficillin1 sensitized MCF-7 and Cal-51 cells lines to treatment with VE-821 (FIG. 6a).
Viability assays were performed in 384-well plates. Cells were plated at 500 cells/well. […] After 5 days, cellular viability was measured using CellTitre blue, as described by the manufacturer.

[3] = system: HCT116 (ARID1A−/−) cell line; assay: Synergy viability assay, HCT116 ARID1A(-/-)
From the text: SMARCA4, the primary target of our original screen, is present in both human BAF and PBAF complexes in cancer^12. PBAF complexes differ from BAF complexes by incorporation of specific subunits. Specifically, PBAF complexes contain ARID2 (as opposed to ARID1A/B), PHF10 (BAF45a) (as opposed to […] (BAF45d)), PBRM1, and lack the BAF-specific subunit SS18. PBAF specific subunits are also frequently mutated in cancer, specifically renal clear cell carcinomas and cholangiocarcinomas^33-36. To assess whether the lead compound is targeting BAF, PBAF complexes, or both, we constitutively knocked down ARID1A or ARID2 by lentiviral transduction of HCT116 cells and compared the BAFi/ATRi synergy to the wild-type (ARID1A+/+).
Isogenic HCT116 ARID1A(+/+) and ARID1A(−/−) cell lines were originally obtained from Horizon Discovery. MCF-7, Cal-51, A-704, and MDA-MB-436, MDA-MB-468, HCC1143, HCC1187, HCC1954, and ACHN cell lines were obtained from American Type […]. All cell lines were grown in McCoy's 5a Media supplemented with 10% FBS.
(§2) Viability assays were performed in 384-well plates. Cells were plated at 500 cells/well. Each drug was administered in 5-doses with 4 replicates per plate, and each 5×5 drug combination was administered with 8 replicates per plate, 24 hours after seeding. All error bars represent 4 or 8 technical replicates averaged over 3 independent experiments. Media containing fresh drug was replaced every 48 hours. After 5 days, cellular viability was measured using CellTitre blue, as described by the manufacturer.

[4] = system: HCT116 cells infected with shRNA lentivirus targeting ARID1A; assay: Synergy viability assay, HCT116 with shARID1A knockdown
From the text: as §1, §2
Lentiviruses were produced in Lenti-X 293T cells (Clonetech) via spinfection with polyethylenimine transfection. 293T-x cells were transfected with PEI (Polysciences Inc., 24765) with lentiviral PLKO shARID1A or GIPZ shARID2 knockdown vectors, co-transfected with packaging vectors pspax2 and pMD2.G as previously described^49. PLKO shRNA construct targeting ARID1A (TRCN0000059090: shRNA-2) was obtained^50 and GIPZ Human ARID2 shRNA was purchased from Dharmacon (CloneId:V2LHS_74399). […]

[5] = single agent, 5 continuous days

CO[C@H]1CN(C)C(=O)c2cc(NC(=O)NC(C)C)ccc2OC[C@H](C)N(Cc2ccc(-c3ccccn3)cc2)C[C@@H]1C [Baficillin1]
combination index (CI shARID2) [1]: 0.42±0.04 | combinatorial effects of BAFi/ATRi [2]: antagonism | sensitivity (cell survival) compared to wild-type HCT116 [3, 5]: slightly less sensitive | combination index (CI −/−) ([3]; with VE-821, 5 days): 1.44±0.12 | sensitivity (cell survival) compared to wild-type HCT116 [4, 5]: slightly less sensitive | combination index (CI shARID1A) ([4]; with VE-821, 5 days): 1.48±0.14
